Results on 8 molecules are retold here after ChEMBL document CHEMBL2406938, “Inhibitors of the renal outer medullary potassium channel” (ACS Med Chem Lett, 2013).

The target of assay [1] is T1, ATP-sensitive inward rectifier potassium channel 1 (Homo sapiens) (UniProt P48048).
T1 sequence (whole entry): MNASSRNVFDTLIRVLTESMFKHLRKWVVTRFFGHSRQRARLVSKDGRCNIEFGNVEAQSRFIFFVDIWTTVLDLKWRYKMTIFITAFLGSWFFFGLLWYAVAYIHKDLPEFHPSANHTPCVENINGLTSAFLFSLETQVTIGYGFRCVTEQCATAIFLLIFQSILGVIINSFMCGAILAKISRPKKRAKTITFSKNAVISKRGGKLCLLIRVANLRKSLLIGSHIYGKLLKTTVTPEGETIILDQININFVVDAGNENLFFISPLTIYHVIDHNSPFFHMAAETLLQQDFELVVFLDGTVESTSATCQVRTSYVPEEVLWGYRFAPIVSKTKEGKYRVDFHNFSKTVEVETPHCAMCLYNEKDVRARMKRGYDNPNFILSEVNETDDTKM
The assay can be described thus: Inhibition of human Kir1.1 expressed in HEK293 cells by thallium flux assay. The class given is cell-based.

Assay [2] has as its target T1, ATP-sensitive inward rectifier potassium channel 1 (Homo sapiens). Kind of assay: Inhibition of human Kir1.1 expressed in CHO cells by whole cell voltage clamp assay. Type of assay: cell-based.

On to `Cc1c([C@H]2CN3CCN(C(=O)C4CCc5nc(-n6cnnn6)ccc54)C[C@H]3CN2)ccc(F)c1C#N` (stereo not given in full), for which the INH was determined as 0.16 µM in assay [1] and 0.09 µM in assay [2]. Take `Cc1c([C@@H]2CN3CCN(C(=O)C4CCc5nc(-n6cnnn6)ccc54)C[C@H]3CO2)ccc(F)c1C#N` (stereo not given in full): the figures for the INH in assay [1] and in assay [2] were 0.14 µM and 0.08 µM, respectively. In assay [2], `O=C1OCc2cc([C@H]3CN4CCN(C(=O)C5CCc6cc(-n7cnnn7)ncc65)C[C@H]4CO3)ccc21` (stereo not given in full) registered an INH of 0.06 µM. Consider `O=C1OCc2cc([C@@H]3CN4CCN(C(=O)C5CCc6nc(-n7cnnn7)ccc65)C[C@H]4CO3)ccc21` (stereo not given in full), for which the INH in assay [1] was found to be 0.11 µM; in assay [2], 0.09 µM. For the molecule `Cc1c([C@@H]2CN3CCN(C(=O)C4CCc5nc(-n6cnnn6)ccc54)C[C@H]3CO2)csc1C#N` (stereo not given in full), the INH in assay [1] turned out to be 0.54 µM; in assay [2] it was 0.06 µM. In the same order, the values of `N#Cc1c(F)ccc([C@@H]2CN3CCN(C(=O)C4CCc5cc(-n6cnnn6)ncc54)C[C@H]3CO2)c1F` (stereo not given in full) are 0.16 µM and 0.04 µM.

Take `Cc1c([C@H]2CN3CCN(C(=O)C4CCc5cc(-n6cnnn6)ncc54)C[C@H]3CN2)ccc(F)c1C#N` (stereo not given in full): the INH in assay [1] amounted to 0.18 µM; in assay [2], 0.1 µM. For the molecule `N#Cc1c(F)ccc([C@@H]2CN3CCN(C(=O)C4CCc5nc(-n6cnnn6)ncc54)C[C@@H]3CO2)c1Cl` (stereo not given in full), the INH in assay [1] was 0.17 µM; in assay [2], 0.06 µM.
